{"source": "patent US4180506A", "about": "“6β-Bromo penicillanic acid” (priority 1978, dated 1979)", "key": {"Vibrio percolans MB-1272": {"tested_on": "Vibrio percolans MB-1272", "test": "Bilayer agar diffusion test, potentiation of Pen G in the presence of penicillinase", "assay_type": "cell-based"}, "[1]": {"tested_on": "two penicillinase-producing animal-pathogenic strains of Staphylococcus aureus", "assay_type": "cell-based, Staphylococcus aureus MB-3648 and MB-3649"}, "S. aureus MB-3648": {"tested_on": "S. aureus MB-3648", "test": "Disc agar diffusion test, potentiation of Pen G and ampicillin", "assay_type": "cell-based, Staphylococcus aureus MB-3648"}, "S. aureus MB-3649": {"tested_on": "S. aureus MB-3649", "test": "Disc agar diffusion test, potentiation of Pen G and ampicillin", "assay_type": "cell-based, Staphylococcus aureus MB-3649"}, "[2]": {"conditions": "subinhibitory concentration (1/4 MZC), extrapolated on standard/regression curve"}, "[3]": {"conditions": "Ampicillin 15.7 μg/ml plus 4 μg/ml clavulanic acid"}, "[4]": {"conditions": "Ampicillin 15.7 μg/ml plus 32 μg/ml 6 BPA"}, "[5]": {"conditions": "Ampicillin 31.3 μg/ml plus 4 μg/ml clavulanic acid"}, "[6]": {"conditions": "Ampicillin 31.3 μg/ml plus 32 μg/ml 6 BPA"}, "[7]": {"conditions": "Ampicillin 62.5 μg/ml plus 4 μg/ml clavulanic acid"}, "[8]": {"conditions": "Ampicillin 62.5 μg/ml plus 32 μg/ml 6 BPA"}, "[9]": {"conditions": "Ampicillin 125 μg/ml plus 4 μg/ml clavulanic acid"}, "[10]": {"conditions": "Ampicillin 125 μg/ml plus 32 μg/ml 6 BPA"}, "[11]": {"conditions": "Ampicillin 250 μg/ml plus 4 μg/ml clavulanic acid"}, "[12]": {"conditions": "Ampicillin 250 μg/ml plus 32 μg/ml 6 BPA"}}, "note": "Read-outs that look alike come from different tables or passages of the source.", "data": [{"compound": "CC1(C)S[C@@H]2[C@H](NC(=O)Cc3ccccc3)C(=O)N2[C@H]1C(=O)O", "note": "[Pen G]", "values": [{"measurement": "zone of inhibition at 5 µg/mL", "setting": "Vibrio percolans MB-1272; Comamonas terrigena, MB1272, Penase 10^4 units/ml, Pen G 5 μg/ml, no inhibitor, read-out: Zone of inhibition, Penase + Pen G Alone", "value": 0, "unit": "mm"}]}, {"compound": "O=C(O)[C@H]1/C(=C/CO)O[C@@H]2CC(=O)N21", "note": "[Clavulanic Acid]", "values": [{"measurement": "Zone of inhibition, Antibiotic + Penase + Pen G", "setting": "Vibrio percolans MB-1272; 1 μg/ml, Penase 10^4 units/ml, Pen G 5 μg/ml", "value": 0, "unit": "mm"}, {"measurement": "Zone of inhibition, Antibiotic + Penase + Pen G", "setting": "Vibrio percolans MB-1272; 2 μg/ml, Penase 10^4 units/ml, Pen G 5 μg/ml", "value": 0, "unit": "mm"}, {"measurement": "Zone of inhibition, Antibiotic + Penase + Pen G", "setting": "Vibrio percolans MB-1272; 4 μg/ml, Penase 10^4 units/ml, Pen G 5 μg/ml", "value": 0, "unit": "mm"}, {"measurement": "Zone of inhibition, Antibiotic + Penase + Pen G", "setting": "Vibrio percolans MB-1272; 8 μg/ml, Penase 10^4 units/ml, Pen G 5 μg/ml", "value": 0, "unit": "mm"}, {"measurement": "Zone of inhibition, Antibiotic + Penase + Pen G", "setting": "Vibrio percolans MB-1272; 16 μg/ml, Penase 10^4 units/ml, Pen G 5 μg/ml", "value": 10, "unit": "mm"}, {"measurement": "Zone of inhibition, Antibiotic + Penase + Pen G", "setting": "Vibrio percolans MB-1272; 31 μg/ml, Penase 10^4 units/ml, Pen G 5 μg/ml", "value": 21, "unit": "mm"}, {"measurement": "zone of inhibition at 1 µg/mL", "setting": "Vibrio percolans MB-1272; Comamonas terrigena, MB1272, 1 μg/ml, Penase 10^4 units/ml, read-out: Zone of inhibition, Antibiotic + Penase", "value": 0, "unit": "mm"}, {"measurement": "zone of inhibition at 1 µg/mL", "setting": "Vibrio percolans MB-1272; Comamonas terrigena, MB1272, 1 μg/ml, read-out: Zone of inhibition, Antibiotic Alone", "value": 0, "unit": "mm"}, {"measurement": "zone of inhibition at 2 µg/mL", "setting": "Vibrio percolans MB-1272; Comamonas terrigena, MB1272, 2 μg/ml, Penase 10^4 units/ml, read-out: Zone of inhibition, Antibiotic + Penase", "value": 0, "unit": "mm"}, {"measurement": "zone of inhibition at 2 µg/mL", "setting": "Vibrio percolans MB-1272; Comamonas terrigena, MB1272, 2 μg/ml, read-out: Zone of inhibition, Antibiotic Alone", "value": 0, "unit": "mm"}, {"measurement": "zone of inhibition at 4 µg/mL", "setting": "Vibrio percolans MB-1272; Comamonas terrigena, MB1272, 4 μg/ml, Penase 10^4 units/ml, read-out: Zone of inhibition, Antibiotic + Penase", "value": 0, "unit": "mm"}, {"measurement": "zone of inhibition at 4 µg/mL", "setting": "Vibrio percolans MB-1272; Comamonas terrigena, MB1272, 4 μg/ml, read-out: Zone of inhibition, Antibiotic Alone", "value": 0, "unit": "mm"}, {"measurement": "zone of inhibition at 8 µg/mL", "setting": "Vibrio percolans MB-1272; Comamonas terrigena, MB1272, 8 μg/ml, read-out: Zone of inhibition, Antibiotic Alone", "value": 0, "unit": "mm"}, {"measurement": "zone of inhibition at 16 µg/mL", "setting": "Vibrio percolans MB-1272; Comamonas terrigena, MB1272, 16 μg/ml, Penase 10^4 units/ml, read-out: Zone of inhibition, Antibiotic + Penase", "value": 10, "unit": "mm"}, {"measurement": "zone of inhibition at 16 µg/mL", "setting": "Vibrio percolans MB-1272; Comamonas terrigena, MB1272, 16 μg/ml, read-out: Zone of inhibition, Antibiotic Alone", "value": 8, "unit": "mm"}, {"measurement": "zone of inhibition at 31 µg/mL", "setting": "Vibrio percolans MB-1272; Comamonas terrigena, MB1272, 31 μg/ml, Penase 10^4 units/ml, read-out: Zone of inhibition, Antibiotic + Penase", "value": 21, "unit": "mm"}, {"measurement": "zone of inhibition at 31 µg/mL", "setting": "Vibrio percolans MB-1272; Comamonas terrigena, MB1272, 31 μg/ml, read-out: Zone of inhibition, Antibiotic Alone", "value": 20, "unit": "mm"}, {"measurement": "Concentration required to produce a zone of inhibition in the presence of Pen G and Penase", "setting": "Vibrio percolans MB-1272; Pen G 5 μg/ml, Penase 10^4 units/ml", "value": 16, "unit": "µg/mL"}, {"measurement": "Amount of clavulanic acid required relative to 6 BPA to produce a zone of inhibition", "setting": "Vibrio percolans MB-1272; in the presence of Pen G and Penase", "value": 64, "unit": "times"}, {"measurement": "Potentiation of Pen G", "setting": "[1]; [2]", "value": 64, "unit": "fold"}, {"measurement": "Potentiation of ampicillin", "setting": "[1]; [2]", "value": 32, "unit": "fold"}, {"measurement": "1/4 of minimum zone-inducing concentration (1/4MZC)", "setting": "[1]; substance alone vs either MB3648 or MB3649", "value": 4, "unit": "µg/mL"}]}, {"compound": "CC1(C)S[C@@H]2[C@H](NC(=O)[C@H](N)c3ccccc3)C(=O)N2[C@H]1C(=O)O", "note": "[Ampicillin]", "values": [{"measurement": "Inhibition Zone Diameter, plus Clavulanic Ac", "setting": "S. aureus MB-3648; [3]", "value": 22, "unit": "mm"}, {"measurement": "Inhibition Zone Diameter, plus 6 BPA", "setting": "S. aureus MB-3648; [4]", "value": 23, "unit": "mm"}, {"measurement": "Inhibition Zone Diameter, plus Clavulanic Ac", "setting": "S. aureus MB-3648; [5]", "value": 23, "unit": "mm"}, {"measurement": "Inhibition Zone Diameter, plus 6 BPA", "setting": "S. aureus MB-3648; [6]", "value": 23, "unit": "mm"}, {"measurement": "Inhibition Zone Diameter, plus Clavulanic Ac", "setting": "S. aureus MB-3648; [7]", "value": 26, "unit": "mm"}, {"measurement": "Inhibition Zone Diameter, plus 6 BPA", "setting": "S. aureus MB-3648; [8]", "value": 24, "unit": "mm"}, {"measurement": "Inhibition Zone Diameter, plus Clavulanic Ac", "setting": "S. aureus MB-3648; [9]", "value": 27, "unit": "mm"}, {"measurement": "Inhibition Zone Diameter, plus 6 BPA", "setting": "S. aureus MB-3648; [10]", "value": 25, "unit": "mm"}, {"measurement": "Inhibition Zone Diameter, plus Clavulanic Ac", "setting": "S. aureus MB-3648; [11]", "value": 27, "unit": "mm"}, {"measurement": "Inhibition Zone Diameter, plus 6 BPA", "setting": "S. aureus MB-3648; [12]", "value": 26, "unit": "mm"}, {"measurement": "zone of inhibition at 15.7 µg/mL", "setting": "S. aureus MB-3648; Staphylococcus aureus, MB3648, Ampicillin 15.7 μg/ml, read-out: Inhibition Zone Diameter, alone", "value": 0, "unit": "mm"}, {"measurement": "zone of inhibition at 31.3 µg/mL", "setting": "S. aureus MB-3648; Staphylococcus aureus, MB3648, Ampicillin 31.3 μg/ml, read-out: Inhibition Zone Diameter, alone", "value": 0, "unit": "mm"}, {"measurement": "zone of inhibition at 62.5 µg/mL", "setting": "S. aureus MB-3648; Staphylococcus aureus, MB3648, Ampicillin 62.5 μg/ml, read-out: Inhibition Zone Diameter, alone", "value": 0, "unit": "mm"}, {"measurement": "zone of inhibition at 125 µg/mL", "setting": "S. aureus MB-3648; Staphylococcus aureus, MB3648, Ampicillin 125 μg/ml, read-out: Inhibition Zone Diameter, alone", "value": 18, "unit": "mm"}, {"measurement": "zone of inhibition at 250 µg/mL", "setting": "S. aureus MB-3648; Staphylococcus aureus, MB3648, Ampicillin 250 μg/ml, read-out: Inhibition Zone Diameter, alone", "value": 20, "unit": "mm"}, {"measurement": "zone of inhibition at 500 µg/mL", "setting": "S. aureus MB-3648; Staphylococcus aureus, MB3648, Ampicillin 500 μg/ml, read-out: Inhibition Zone Diameter, alone", "value": 23, "unit": "mm"}, {"measurement": "zone of inhibition at 1000 µg/mL", "setting": "S. aureus MB-3648; Staphylococcus aureus, MB3648, Ampicillin 1000 μg/ml, read-out: Inhibition Zone Diameter, alone", "value": 26, "unit": "mm"}, {"measurement": "Inhibition Zone Diameter, plus Clavulanic Ac", "setting": "S. aureus MB-3649; [3]", "value": 20, "unit": "mm"}, {"measurement": "Inhibition Zone Diameter, plus 6 BPA", "setting": "S. aureus MB-3649; [4]", "value": 19, "unit": "mm"}, {"measurement": "Inhibition Zone Diameter, plus Clavulanic Ac", "setting": "S. aureus MB-3649; [5]", "value": 23, "unit": "mm"}, {"measurement": "Inhibition Zone Diameter, plus 6 BPA", "setting": "S. aureus MB-3649; [6]", "value": 21, "unit": "mm"}, {"measurement": "Inhibition Zone Diameter, plus Clavulanic Ac", "setting": "S. aureus MB-3649; [7]", "value": 24, "unit": "mm"}, {"measurement": "Inhibition Zone Diameter, plus 6 BPA", "setting": "S. aureus MB-3649; [8]", "value": 23, "unit": "mm"}, {"measurement": "Inhibition Zone Diameter, plus Clavulanic Ac", "setting": "S. aureus MB-3649; [9]", "value": 25, "unit": "mm"}, {"measurement": "Inhibition Zone Diameter, plus 6 BPA", "setting": "S. aureus MB-3649; [10]", "value": 24, "unit": "mm"}, {"measurement": "Inhibition Zone Diameter, plus Clavulanic Ac", "setting": "S. aureus MB-3649; [11]", "value": 24, "unit": "mm"}, {"measurement": "Inhibition Zone Diameter, plus 6 BPA", "setting": "S. aureus MB-3649; [12]", "value": 29, "unit": "mm"}, {"measurement": "zone of inhibition at 15.7 µg/mL", "setting": "S. aureus MB-3649; Staphylococcus aureus, MB3649, Ampicillin 15.7 μg/ml, read-out: Inhibition Zone Diameter, alone", "value": 0, "unit": "mm"}, {"measurement": "zone of inhibition at 31.3 µg/mL", "setting": "S. aureus MB-3649; Staphylococcus aureus, MB3649, Ampicillin 31.3 μg/ml, read-out: Inhibition Zone Diameter, alone", "value": 0, "unit": "mm"}, {"measurement": "zone of inhibition at 62.5 µg/mL", "setting": "S. aureus MB-3649; Staphylococcus aureus, MB3649, Ampicillin 62.5 μg/ml, read-out: Inhibition Zone Diameter, alone", "value": 0, "unit": "mm"}, {"measurement": "zone of inhibition at 125 µg/mL", "setting": "S. aureus MB-3649; Staphylococcus aureus, MB3649, Ampicillin 125 μg/ml, read-out: Inhibition Zone Diameter, alone", "value": 17, "unit": "mm"}, {"measurement": "zone of inhibition at 250 µg/mL", "setting": "S. aureus MB-3649; Staphylococcus aureus, MB3649, Ampicillin 250 μg/ml, read-out: Inhibition Zone Diameter, alone", "value": 18, "unit": "mm"}, {"measurement": "zone of inhibition at 500 µg/mL", "setting": "S. aureus MB-3649; Staphylococcus aureus, MB3649, Ampicillin 500 μg/ml, read-out: Inhibition Zone Diameter, alone", "value": 20, "unit": "mm"}, {"measurement": "zone of inhibition at 1000 µg/mL", "setting": "S. aureus MB-3649; Staphylococcus aureus, MB3649, Ampicillin 1000 μg/ml, read-out: Inhibition Zone Diameter, alone", "value": 25, "unit": "mm"}]}]}
